Data reported in US20120101093A1, “SUBSTITUTED IMIDAZO[1,2-A]PYRIDINE DERIVATIVES, PHARMACEUTICAL COMPOSITIONS, AND METHODS OF USE AS BETA-SECRETASE INHIBITORS” (HIGH POINT PHARMACEUTICALS, LLC, priority 2009, published 2012).

Key:
BACE-1 enzyme = target: T1, BACE-1 enzyme (Homo sapiens, UniProt P56817); assay: BACE Fluorescence Resonance Energy Transfer (FRET) Assay; type: biochemical; settings: pH 4-4.5, 30 min pre-incubation, about 1.5 hours reaction
T1 construct: purchased R & D Systems 931AS
T1 sequence (P56817 46-457 limits assumed): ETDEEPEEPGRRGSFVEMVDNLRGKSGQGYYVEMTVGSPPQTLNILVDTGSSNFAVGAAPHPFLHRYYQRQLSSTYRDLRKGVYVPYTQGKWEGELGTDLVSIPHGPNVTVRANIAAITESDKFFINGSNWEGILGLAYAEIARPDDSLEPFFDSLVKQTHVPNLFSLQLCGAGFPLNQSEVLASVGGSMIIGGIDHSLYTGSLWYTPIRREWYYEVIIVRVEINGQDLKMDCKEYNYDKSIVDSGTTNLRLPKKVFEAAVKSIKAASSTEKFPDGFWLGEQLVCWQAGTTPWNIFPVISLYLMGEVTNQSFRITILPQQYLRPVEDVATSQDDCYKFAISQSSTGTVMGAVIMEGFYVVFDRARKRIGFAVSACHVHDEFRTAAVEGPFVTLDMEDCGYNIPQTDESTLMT
How it was run: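 Fluorescence (ex 540, em 585 nm) after ~1.5 h room-temperature cleavage of a quenched rhodamine peptide tracks BACE-1 activity. Enzyme and compound first sit 30 min in pH 4-4.5 acetate buffer with CHAPS, Triton X-100, EDTA, 7.5% DMSO. Values given as IC50 or % inhibition.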

[1] = tested on: Aβ1-40 secreted from HEK293 cells stably expressing wildtype human APP695 protein (HEK-APPwt cells); assay: Aβ Cell Based Assay (Aβ1-40 secretion, ELISA); settings: Homo sapiens, HEK293, 6 h, 6 hours incubation, reduction of Aβ1-40 secretion
How it was run: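 Cells in DMEM with 2% FBS exposed to ten compound concentrations for 6 h at 37 °C. Secreted Aβ1-40 in supernatant quantified by sandwich ELISA (82E1 capture, TMB, OD450). EC50 from percent inhibition, DAPT defining 100% inhibition, non-linear fit.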

Row | IC50 (BACE-1 enzyme) | Structure (SMILES) | EC50 [1]
1 | 0.27 µM | Cc1cccc2nc(C(=O)Nc3nc4cc(C5CCC(C)CC5)ccc4[nH]3)cn12 (stereo not shown) [Example 119, 5-Methyl-imidazo[1,2-a]pyridine-2-carboxylic acid [5-(4-methyl-cyclohexyl)-1H-benzoimidazol-2-yl]-amide] | 1.82 µM
2 | 0.67 µM | CN(C)c1cccc2nc(C(=O)Nc3nc4cc(-c5cccc(C(F)(F)F)c5)ccc4[nH]3)cn12 [Example 121, 5-Dimethylamino-imidazo[1,2-a]pyridine-2-carboxylic acid [5-(3-trifluoromethyl-phenyl)-1H-benzoimidazol-2-yl]-amide] | 0.37 µM
3 | 0.54 µM | COCCNc1cccc2nc(C(=O)Nc3nc4cc(-c5cccc(C(F)(F)F)c5)ccc4[nH]3)cn12 [Example 122, 5-(2-Methoxy-ethylamino)-imidazo[1,2-a]pyridine-2-carboxylic acid [5-(3-trifluoromethyl-phenyl)-1H-benzoimidazol-2-yl]-amide] | 1.5 µM
4 | 2.11 µM | O=C(Nc1nc2cc(-c3cccc(C(F)(F)F)c3)ccc2[nH]1)c1cn2c(N3CCOCC3)cccc2n1 [Example 123, 5-Morpholin-4-yl-imidazo[1,2-a]pyridine-2-carboxylic acid [5-(3-trifluoromethyl-phenyl)-1H-benzoimidazol-2-yl]-amide] | 1.11 µM
5 | 0.55 µM | COc1ccc(-c2ccc3[nH]c(NC(=O)c4cn5c(N6CCN(C)CC6)cccc5n4)nc3c2)cc1C(F)(F)F [Example 124, 5-(4-Methyl-piperazin-1-yl)-imidazo[1,2-a]pyridine-2-carboxylic acid [5-(4-methoxy-3-trifluoromethyl-phenyl)-1H-benzoimidazol-2-yl]-amide] | 3.13 µM
6 | 0.22 µM | COc1cc(F)cn2cc(C(=O)Nc3nc4cc(-c5cc(F)cc(Cl)c5)ccc4[nH]3)nc12 [Example 126, 6-Fluoro-8-methoxy-imidazo[1,2-a]pyridine-2-carboxylic acid [5-(3-chloro-5-fluoro-phenyl)-1H-benzoimidazol-2-yl]-amide] | 1.58 µM
7 | 0.45 µM | COc1cc(F)cn2cc(C(=O)Nc3nc4cc(-c5cccc(C(F)(F)F)c5)ccc4[nH]3)nc12 [Example 127, 6-Fluoro-8-methoxy-imidazo[1,2-a]pyridine-2-carboxylic acid [5-(3-trifluoromethyl-phenyl)-1H-benzoimidazol-2-yl]-amide] | 1.73 µM
8 | 0.52 µM | O=C(Nc1nc2cc(-c3cccc(C(F)(F)F)c3)ccc2[nH]1)c1cn2c(CO)cccc2n1 [Example 161, 5-Hydroxymethyl-imidazo[1,2-a]pyridine-2-carboxylic acid [5-(3-trifluoromethyl-phenyl)-1H-benzoimidazol-2-yl]-amide] | 2.87 µM
9 | 0.23 µM | COCCNCc1cccc2nc(C(=O)Nc3nc4cc(-c5cccc(C(F)(F)F)c5)ccc4[nH]3)cn12 [Example 162, 5-[(2-Methoxy-ethylamino)-methyl]-imidazo[1,2-a]pyridine-2-carboxylic acid [5-(3-trifluoromethyl-phenyl)-1H-benzoimidazol-2-yl]-amide] | 0.98 µM
10 | 0.36 µM | CN(C)Cc1cccc2nc(C(=O)Nc3nc4cc(-c5cccc(C(F)(F)F)c5)ccc4[nH]3)cn12 [Example 163, 5-Dimethylaminomethyl-imidazo[1,2-a]pyridine-2-carboxylic acid [5-(3-trifluoromethyl-phenyl)-1H-benzoimidazol-2-yl]-amide] | 1.11 µM
11 | 0.42 µM | O=C(Nc1nc2cc(-c3cccc(C(F)(F)F)c3)ccc2[nH]1)c1cn2c(CN3CCOCC3)cccc2n1 [Example 165, 5-Morpholin-4-ylmethyl-imidazo[1,2-a]pyridine-2-carboxylic acid [5-(3-trifluoromethyl-phenyl)-1H-benzoimidazol-2-yl]-amide] | 1.88 µM
